# Experimental data as given in publication PMC8213057, “Targeting ALK2: An Open Science Approach to Developing Therapeutics for the Treatment of Diffuse Intrinsic Pontine Glioma” (Journal of Medicinal Chemistry, 2020).
# “And” between values parts separate entries of the source, which are not always exact repeats. Equal entries are not always repeated.
# Tests used:
# ALK2 = molecular target: T1, ALK2 (Homo sapiens, UniProt Q04771); assay: NanoBRET target engagement assay in HEK293 cells; assay type: cell-based; conditions: DLA ALK5 IC50 / NanoBRET ALK2 IC50
# T1 construct: host or cells: HEK-293
# T1 sequence (Q04771 21-509): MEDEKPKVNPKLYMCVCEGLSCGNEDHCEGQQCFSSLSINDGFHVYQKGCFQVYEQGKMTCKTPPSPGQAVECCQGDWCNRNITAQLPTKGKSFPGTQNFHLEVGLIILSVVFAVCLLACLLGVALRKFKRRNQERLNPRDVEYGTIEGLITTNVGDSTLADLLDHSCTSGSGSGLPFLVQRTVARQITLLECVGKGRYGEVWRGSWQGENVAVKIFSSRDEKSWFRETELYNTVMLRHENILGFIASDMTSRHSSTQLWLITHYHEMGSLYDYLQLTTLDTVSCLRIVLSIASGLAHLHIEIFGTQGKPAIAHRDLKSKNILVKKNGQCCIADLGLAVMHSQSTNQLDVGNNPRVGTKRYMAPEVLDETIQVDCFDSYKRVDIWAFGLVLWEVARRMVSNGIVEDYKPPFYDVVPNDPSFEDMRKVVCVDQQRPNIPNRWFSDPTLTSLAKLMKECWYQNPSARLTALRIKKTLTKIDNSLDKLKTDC
# ALK2/ACVR1 = molecular target: T2, ALK2/ACVR1 (Homo sapiens, UniProt Q04771); assay type: biochemical; conditions: for Fold Selectivity (ALK5/ALK2): biochemical ALK5 IC50 / ALK2 IC50; for fold decrease in inhibitory activity against ALK2: biochemical, relative to M4K2149
# T2 construct: purchased Reaction Biology Corporation
# T2 sequence (Q04771 21-509): T1 sequence (Q04771 21-509)
# [1] = mouse liver microsomal stability assay; assay type: in vitro ADME; conditions: male, 60 min, 37 °C, read-out: MLM % Remaining at 1h
# [2] = human liver microsomal stability assay; assay type: in vitro ADME; conditions: pH 7.4, human liver microsomes, 60 min, 37 °C, read-out: HLM % Remaining at 1h
# in vitro = conditions: human, Caco-2, pH 7.4
# in vivo = conditions: female, CB17 SCID, mouse, po, 10 mg/kg
# Caco-2 cells [3] = assay: Caco-2 permeability assay; conditions: 5 μM
# [4] = Caco-2 permeability assay; conditions: human
# hERG potassium channel = molecular target: T3, hERG potassium channel (Homo sapiens, UniProt Q12809); assay: hERG patch-clamp assay in HEK293 cells; conditions: HEK293 cell-based patch-clamp
# T3 construct: host or cells: HEK293
# T3 sequence (Q12809 whole entry): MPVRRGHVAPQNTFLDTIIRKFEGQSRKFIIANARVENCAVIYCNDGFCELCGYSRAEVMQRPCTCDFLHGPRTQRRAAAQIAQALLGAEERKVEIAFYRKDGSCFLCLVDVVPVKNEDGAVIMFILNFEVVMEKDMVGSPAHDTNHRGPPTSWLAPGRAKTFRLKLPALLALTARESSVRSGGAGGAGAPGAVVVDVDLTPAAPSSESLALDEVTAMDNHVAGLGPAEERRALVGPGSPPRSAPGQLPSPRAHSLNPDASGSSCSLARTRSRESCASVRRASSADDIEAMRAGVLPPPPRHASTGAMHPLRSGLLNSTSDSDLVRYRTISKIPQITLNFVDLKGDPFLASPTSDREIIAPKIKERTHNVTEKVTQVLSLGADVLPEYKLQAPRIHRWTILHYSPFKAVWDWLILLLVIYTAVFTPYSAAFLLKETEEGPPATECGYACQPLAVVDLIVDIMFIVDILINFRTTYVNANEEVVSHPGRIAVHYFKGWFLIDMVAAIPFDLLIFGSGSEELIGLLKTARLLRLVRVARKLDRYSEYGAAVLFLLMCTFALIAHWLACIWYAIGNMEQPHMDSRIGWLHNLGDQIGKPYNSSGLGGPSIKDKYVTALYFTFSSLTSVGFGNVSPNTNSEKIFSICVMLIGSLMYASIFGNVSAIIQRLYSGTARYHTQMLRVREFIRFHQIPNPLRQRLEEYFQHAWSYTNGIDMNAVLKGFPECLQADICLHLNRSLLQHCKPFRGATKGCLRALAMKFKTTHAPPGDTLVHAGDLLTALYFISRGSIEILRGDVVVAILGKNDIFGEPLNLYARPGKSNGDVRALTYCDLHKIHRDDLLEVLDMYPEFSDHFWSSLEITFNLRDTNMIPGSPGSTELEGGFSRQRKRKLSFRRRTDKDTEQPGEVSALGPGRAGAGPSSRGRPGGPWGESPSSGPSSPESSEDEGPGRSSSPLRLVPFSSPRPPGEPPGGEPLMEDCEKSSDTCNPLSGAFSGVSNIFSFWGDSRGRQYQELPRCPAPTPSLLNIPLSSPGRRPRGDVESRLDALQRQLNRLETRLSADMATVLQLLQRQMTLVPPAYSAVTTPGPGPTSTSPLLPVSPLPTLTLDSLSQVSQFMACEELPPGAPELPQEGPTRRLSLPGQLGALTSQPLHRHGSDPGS
# Caco-2 cells [5] = system: Caco-2 cells; set-up: method as in earlier work; conditions: unpublished results ref 21; cited from earlier work
# [6] = CD-1, mouse, microsomes, pH 7.4, mouse liver microsomes
# [7] = CD-1, pH 7.4, mouse liver microsomes
smiles,measurement,setting,value
COc1cc(-c2cncc(-c3ccc(N4CCNCC4)cc3)c2C)ccc1C(=O)N(C)C,IC50,ALK2 (WT),> 1 µM
same,IC50,ALK5,> 5 µM
same,IC50,NanoBRET ALK2,> 5 µM
same,IC50,DLA ALK5,> 5 µM
"COc1cc(-c2cncc(-c3ccc(N4CCNCC4)cc3)c2C)cc(Cl)c1C(N)=O [Compound 20e, 2-Chloro-6-methoxy-4-(4-methyl-5-(4-(piperazin-1-yl)phenyl)pyridin-3-yl)benzamide]",IC50,DLA ALK5,> 5 µM
same,IC50,ALK2 (G328V),< 0.002 µM
same,Cell-based Fold Selectivity,ALK2,>54
"COc1c(-c2cncc(-c3ccc(N4CCNCC4)cc3)c2C)csc1C(N)=O [Compound 7b, 3-Methoxy-4-(4-methyl-5-(4-(piperazin-1-yl)phenyl)pyridin-3-yl)thiophene-2-carboxamide]",IC50,ALK5,> 5 µM
same,IC50,DLA ALK5,> 5 µM
same,Fold Selectivity (ALK5/ALK2),ALK2/ACVR1,>7
same,fold decrease in inhibitory activity against ALK2,ALK2/ACVR1,greater than 40 fold
same,Cell-based Fold Selectivity,ALK2,>1
COc1c(C(N)=O)csc1-c1cncc(-c2ccc(N3CCNCC3)cc2)c1C,IC50,ALK2 (WT),> 1 µM
same,IC50,ALK5,> 5 µM
same,IC50,NanoBRET ALK2,> 5 µM
same,IC50,DLA ALK5,> 5 µM
"COc1ccc(-c2cncc(-c3ccc(N4CCNCC4)cc3)c2C)cc1C(N)=O [Compound 14a, 2-Methoxy-5-(4-methyl-5-(4-(piperazin-1-yl)phenyl)pyridin-3-yl)benzamide]",IC50,ALK2 (WT),> 1 µM
same,IC50,ALK5,> 5 µM
same,IC50,DLA ALK5,> 5 µM
same,Cell-based Fold Selectivity,ALK2,>7
"COCc1cc(-c2cncc(-c3ccc(N4CCNCC4)cc3)c2C)ccc1C(N)=O [Compound 20c, 2-(Methoxymethyl)-4-(4-methyl-5-(4-(piperazin-1-yl)phenyl)pyridin-3-yl)benzamide]",IC50,ALK5,> 5 µM
same,IC50,DLA ALK5,> 5 µM
same,Fold Selectivity (ALK5/ALK2),ALK2/ACVR1,>7
same,Cell-based Fold Selectivity,ALK2,>1
"COc1cc(-c2cncc(-c3ccc(N4C[C@@H](C)N(C)[C@@H](C)C4)cc3)c2C)cc(OC)c1C(N)=O [Compound 26f, 2,6-Dimethoxy-4-(4-methyl-5-(4-((3R,5S)-3,4,5-trimethylpiperazin-1-yl)phenyl)pyridin-3-yl)benzamide]",IC50,NanoBRET ALK2,0.021 µM
same,"remaining at 1 h, 1 μM",[1]; [6],57.5%
same,"remaining at 1 h, 1 μM","[2]; human, microsomes",55.7%
same,Papp A→B,in vitro,0.7 ×10⁻⁶ cm/s
same,Papp B→A,in vitro,12.6 ×10⁻⁶ cm/s
"COc1cc(-c2cncc(-c3ccc(N4CCNCC4)cc3)c2C)sc1C(N)=O [Compound 7a, 3-Methoxy-5-(4-methyl-5-(4-(piperazin-1-yl)phenyl)pyridin-3-yl)thiophene-2-carboxamide]",IC50,ALK5,> 5 µM
same,IC50,DLA ALK5,> 5 µM
same,Fold Selectivity (ALK5/ALK2),ALK2/ACVR1,>6
same,fold decrease in inhibitory activity against ALK2,ALK2/ACVR1,greater than 40 fold
same,Cell-based Fold Selectivity,ALK2,>1
"Cc1c(-c2ccc(N3CCNCC3)cc2)cncc1-c1ccc(C(N)=O)c(F)c1 [Compound 20d, 2-Fluoro-4-(4-methyl-5-(4-(piperazin-1-yl)phenyl)pyridin-3-yl)benzamide]",IC50,ALK5,> 5 µM
same,IC50,DLA ALK5,> 5 µM
same,Fold Selectivity (ALK5/ALK2),ALK2/ACVR1,>19
same,Cell-based Fold Selectivity,ALK2,>4
"Cc1c(-c2ccc(N3CCNCC3)cc2)cncc1-c1ccc2c(c1)CNC2=O [Compound 20a, 5-(4-Methyl-5-(4-(piperazin-1-yl)phenyl)pyridin-3-yl)isoindolin-1-one]",IC50,ALK5,> 5 µM
same,Fold Selectivity (ALK5/ALK2),ALK2/ACVR1,>7
"COc1cc(-c2cncc(-c3ccc(N4CCNCC4)cc3)c2C)cc(F)c1C(N)=O [Compound 8b, 2-Fluoro-6-methoxy-4-(4-methyl-5-(4-(piperazin-1-yl)phenyl)pyridin-3-yl)benzamide]",Fold Selectivity (ALK5/ALK2),ALK2/ACVR1,80
same,"remaining at 1 h, 1 μM",[1]; [6],98.4%
same,"remaining at 1 h, 1 μM","[2]; human, microsomes",105%
same,half-life at 24 h,in vivo,1.31 h
same,Papp_AB,"Caco-2 cells [3]; Caco-2, apical to basolateral",0.3 10^-6 cm/s
same,Papp_BA,"Caco-2 cells [3]; Caco-2, basolateral to apical",10.7 10^-6 cm/s
"Cc1c(-c2ccc(C(N)=O)cc2)cncc1-c1ccc(N2CCNCC2)cc1 [Compound 20b, 4-(4-Methyl-5-(4-(piperazin-1-yl)phenyl)pyridin-3-yl)benzamide]",IC50,ALK5,> 5 µM
same,IC50,DLA ALK5,> 5 µM
same,Fold Selectivity (ALK5/ALK2),ALK2/ACVR1,>10
same,fold decrease in inhibitory activity against ALK2,ALK2/ACVR1,28 fold
same,Cell-based Fold Selectivity,ALK2,>1
"COc1cc(-c2cncc(-c3ccc(N4CCN(C)CC4)cc3)c2C)cc(OC)c1C(N)=O [Compound 26d, 2,6-Dimethoxy-4-(4-methyl-5-(4-(4-methylpiperazin-1-yl)phenyl)pyridin-3-yl)benzamide]",IC50,ALK2 (WT),< 0.003 µM
same,IC50,ALK2 (G328V),< 0.002 µM
same,IC50,ALK2 (R258G),< 0.002 µM
same,"remaining at 1 h, 1 μM",[1]; [7],85.2%
same,"remaining at 1 h, 1 μM",[2]; pooled liver microsomes,81.4%
same,"Papp A→B at 120 min, 5 μM","[4]; Caco-2, pH 7.4",0.7 ×10⁻⁶ cm/s
same,"Papp B→A at 120 min, 5 μM","[4]; Caco-2, pH 7.4",13.9 ×10⁻⁶ cm/s
same,"efflux ratio at 120 min, 5 μM","[4]; Caco-2, pH 7.4",> 10
"COc1cc(-c2cncc(-c3ccc(N4CCN(C(C)C)CC4)cc3)c2C)cc(OC)c1C(N)=O [Compound 26e, 4-(5-(4-(4-Isopropylpiperazin-1-yl)phenyl)-4-methylpyridin-3-yl)-2,6-dimethoxybenzamide]",Fold Selectivity (ALK5/ALK2),ALK2/ACVR1,13
same,"remaining at 1 h, 1 μM",[1]; [7],99.5%
same,"remaining at 1 h, 1 μM",[2]; pooled liver microsomes,98%
same,"Papp A→B at 120 min, 5 μM","[4]; Caco-2, pH 7.4",0.9 ×10⁻⁶ cm/s
same,"Papp B→A at 120 min, 5 μM","[4]; Caco-2, pH 7.4",14.4 ×10⁻⁶ cm/s
same,"efflux ratio at 120 min, 5 μM","[4]; Caco-2, pH 7.4, Efflux ratio, Caco-2, Papp (B-to-A)/Papp (A-to-B)",> 10
CNC(=O)c1ccc(-c2cncc(-c3ccc(N4CCNCC4)cc3)c2C)cc1OC,IC50,ALK2 (WT),> 1 µM
same,IC50,ALK5,> 5 µM
same,IC50,NanoBRET ALK2,> 5 µM
same,IC50,DLA ALK5,> 5 µM
"COc1cc(C(N)=O)cc(-c2cncc(-c3ccc(N4CCNCC4)cc3)c2C)c1 [Compound 14b, 3-Methoxy-5-(4-methyl-5-(4-(piperazin-1-yl)phenyl)pyridin-3-yl)benzamide]",IC50,ALK5,> 5 µM
same,IC50,DLA ALK5,> 5 µM
same,Fold Selectivity (ALK5/ALK2),ALK2/ACVR1,>49
same,Cell-based Fold Selectivity,ALK2,>8
"COc1cc(-c2cncc(-c3ccc(N4CCNCC4)cc3)c2C)cc(OC)c1C(N)=O [Compound 8c, 2,6-Dimethoxy-4-(4-methyl-5-(4-(piperazin-1-yl)phenyl)pyridin-3-yl)benzamide]",Fold Selectivity (ALK5/ALK2),ALK2/ACVR1,9
same,"remaining at 1 h, 1 μM",[1]; [7],99.8%
same,"remaining at 1 h, 1 μM",[2]; pooled liver microsomes,88.8%
same,"Papp A→B at 120 min, 5 μM","[4]; Caco-2, pH 7.4",0.1 ×10⁻⁶ cm/s
same,"Papp B→A at 120 min, 5 μM","[4]; Caco-2, pH 7.4",6.1 ×10⁻⁶ cm/s
COc1cc(-c2cncc(-c3ccc(N4CCNCC4)cc3)c2C)ccc1C(N)=O [Compound M4K2149],IC50,hERG,>50 µM and >30 µM
same,IC50,hERG potassium channel,> 50 µM
same,efflux ratio,Caco-2 cells [5],8.1
